Experimental data taken from ChEMBL document CHEMBL1138608, “The discovery of potent, selective, and orally bioavailable PDE9 inhibitors as potential hypoglycemic agents” (Bioorg Med Chem Lett, 2009).

Assays:
[1] = target: High affinity cGMP-specific 3',5'-cyclic phosphodiesterase 9A (Homo sapiens, UniProt O76083); test: Inhibition of human recombinant PDE9 expressed in SF9 cells by scintillation proximity assay
[2] = target: Dual specificity calcium/calmodulin-dependent 3',5'-cyclic nucleotide phosphodiesterase 1C (Homo sapiens, UniProt Q14123); test: Inhibition of PDE1c
[3] = target: Dual specificity calcium/calmodulin-dependent 3',5'-cyclic nucleotide phosphodiesterase 1B (Homo sapiens, UniProt Q01064); test: Inhibition of PDE1b
[4] = target: Dual specificity calcium/calmodulin-dependent 3',5'-cyclic nucleotide phosphodiesterase 1A (Homo sapiens, UniProt P54750); test: Inhibition of PDE1a
[5] = Apparent permeability across MDCK cells; conditions: dog
[6] = Inhibition of PDE2
[7] = Inhibition of PDE6
[8] = target: cGMP-specific 3',5'-cyclic phosphodiesterase (Homo sapiens, UniProt O76074); test: Inhibition of PDE5
[9] = target: cGMP-inhibited 3',5'-cyclic phosphodiesterase 3A (Homo sapiens, UniProt Q14432); test: Inhibition of PDE3a
[10] = target: High affinity 3',5'-cyclic-AMP phosphodiesterase 7A (Homo sapiens, UniProt Q13946); test: Inhibition of PDE7a
[11] = target: cGMP-inhibited 3',5'-cyclic phosphodiesterase 3B (Homo sapiens, UniProt Q13370); test: Inhibition of PDE3b
[12] = target: 3',5'-cyclic-AMP phosphodiesterase 4C (Homo sapiens, UniProt Q08493); test: Inhibition of PDE4c
[13] = target: 3',5'-cyclic-AMP phosphodiesterase 4A (Homo sapiens, UniProt P27815); test: Inhibition of PDE4a
[14] = target: 3',5'-cyclic-AMP phosphodiesterase 7B (Homo sapiens, UniProt Q9NP56); test: Inhibition of PDE7b
[15] = target: 3',5'-cyclic-AMP phosphodiesterase 4B (Homo sapiens, UniProt Q07343); test: Inhibition of PDE4b
[16] = target: High affinity cAMP-specific and IBMX-insensitive 3',5'-cyclic phosphodiesterase 8A (Homo sapiens, UniProt O60658); test: Inhibition of PDE8a
[17] = target: 3',5'-cyclic-AMP phosphodiesterase 4D (Homo sapiens, UniProt Q08499); test: Inhibition of PDE4d
[18] = Inhibition of PDE10
[19] = Inhibition of PDE11
[20] = target: High affinity cAMP-specific and IBMX-insensitive 3',5'-cyclic phosphodiesterase 8B (Homo sapiens, UniProt O95263); test: Inhibition of PDE8b
Mus musculus [21] = test: Free plasma concentration at terminal bleed in ob/ob mouse at 250 mg/kg, po administered by subchronic dosing for 4 days after 3 hrs of last dose
Mus musculus [22] = test: Reduction of glucose level in ob/ob mouse at 100 mg/kg, po administered by subchronic dosing for 4 days relative to control (RVb 406 mg/dl); format: functional; parameters: scale not given: the % may be the effect or the level left
Mus musculus [23] = test: Reduction of insulin level in ob/ob mouse at 500 mg/kg, po administered by subchronic dosing for 4 days (RVb 23 ng/mL); format: functional; parameters: scale not given: the % may be the effect or the level left
Mus musculus [24] = test: Reduction of glucose level in ob/ob mouse at 500 mg/kg, po administered by subchronic dosing for 4 days (RVb 406 mg/dl); format: functional; parameters: scale not given: the % may be the effect or the level left
Mus musculus [25] = test: Reduction of glucose level in ob/ob mouse at 250 mg/kg, po administered by subchronic dosing for 4 days (RVb 406 mg/dl); format: functional; parameters: scale not given: the % may be the effect or the level left
Mus musculus [26] = test: Reduction of body weight in ob/ob mouse at 100 mg/kg, po administered by subchronic dosing for 4 days (RVb 44 g); format: functional; parameters: scale not given: the % may be the effect or the level left
Mus musculus [27] = test: Free plasma concentration at terminal bleed in ob/ob mouse at 500 mg/kg, po administered by subchronic dosing for 4 days after 3 hrs of last dose
Mus musculus [28] = test: Reduction of insulin level in ob/ob mouse at 100 mg/kg, po administered by subchronic dosing for 4 days (RVb 23 ng/mL); format: functional; parameters: scale not given: the % may be the effect or the level left
Mus musculus [29] = test: Reduction of insulin level in ob/ob mouse at 250 mg/kg, po administered by subchronic dosing for 4 days (RVb 23 ng/mL); format: functional; parameters: scale not given: the % may be the effect or the level left
Mus musculus [30] = test: Reduction of body weight in ob/ob mouse at 500 mg/kg, po administered by subchronic dosing for 4 days (RVb 44 g); format: functional; parameters: scale not given: the % may be the effect or the level left
Mus musculus [31] = test: Free plasma concentration at terminal bleed in ob/ob mouse at 100 mg/kg, po administered by subchronic dosing for 4 days after 3 hrs of last dose
Mus musculus [32] = test: Reduction of body weight in ob/ob mouse at 250 mg/kg, po administered by subchronic dosing for 4 days (RVb 44 g); format: functional; parameters: scale not given: the % may be the effect or the level left
[33] = Oral bioavailability in rat; conditions: in vivo
in vivo = conditions: rat
[34] = Volume of distribution at steady state in rat; conditions: in vivo

Chain of 3',5'-cyclic-AMP phosphodiesterase 4B (Q07343 whole entry): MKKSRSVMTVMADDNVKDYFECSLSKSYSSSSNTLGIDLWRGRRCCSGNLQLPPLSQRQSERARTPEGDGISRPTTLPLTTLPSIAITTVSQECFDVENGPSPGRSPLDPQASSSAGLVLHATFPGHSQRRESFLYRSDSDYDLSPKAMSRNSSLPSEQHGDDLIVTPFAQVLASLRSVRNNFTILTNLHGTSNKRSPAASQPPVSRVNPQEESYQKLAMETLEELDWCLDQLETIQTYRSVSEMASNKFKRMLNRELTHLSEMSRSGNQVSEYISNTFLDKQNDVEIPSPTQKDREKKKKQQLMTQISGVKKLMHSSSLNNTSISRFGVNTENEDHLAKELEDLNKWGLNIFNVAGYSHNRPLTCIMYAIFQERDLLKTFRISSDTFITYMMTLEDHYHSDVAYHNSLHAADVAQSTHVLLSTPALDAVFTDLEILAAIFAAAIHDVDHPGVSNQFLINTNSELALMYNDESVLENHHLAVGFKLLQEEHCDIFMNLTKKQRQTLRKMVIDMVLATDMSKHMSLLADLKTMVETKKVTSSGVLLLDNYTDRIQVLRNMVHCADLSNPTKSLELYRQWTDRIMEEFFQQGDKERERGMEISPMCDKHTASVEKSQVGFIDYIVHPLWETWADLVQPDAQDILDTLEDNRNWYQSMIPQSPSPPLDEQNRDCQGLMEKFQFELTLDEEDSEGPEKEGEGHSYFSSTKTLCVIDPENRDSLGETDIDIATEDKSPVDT
Chain of High affinity cGMP-specific 3',5'-cyclic phosphodiesterase 9A (O76083 whole entry): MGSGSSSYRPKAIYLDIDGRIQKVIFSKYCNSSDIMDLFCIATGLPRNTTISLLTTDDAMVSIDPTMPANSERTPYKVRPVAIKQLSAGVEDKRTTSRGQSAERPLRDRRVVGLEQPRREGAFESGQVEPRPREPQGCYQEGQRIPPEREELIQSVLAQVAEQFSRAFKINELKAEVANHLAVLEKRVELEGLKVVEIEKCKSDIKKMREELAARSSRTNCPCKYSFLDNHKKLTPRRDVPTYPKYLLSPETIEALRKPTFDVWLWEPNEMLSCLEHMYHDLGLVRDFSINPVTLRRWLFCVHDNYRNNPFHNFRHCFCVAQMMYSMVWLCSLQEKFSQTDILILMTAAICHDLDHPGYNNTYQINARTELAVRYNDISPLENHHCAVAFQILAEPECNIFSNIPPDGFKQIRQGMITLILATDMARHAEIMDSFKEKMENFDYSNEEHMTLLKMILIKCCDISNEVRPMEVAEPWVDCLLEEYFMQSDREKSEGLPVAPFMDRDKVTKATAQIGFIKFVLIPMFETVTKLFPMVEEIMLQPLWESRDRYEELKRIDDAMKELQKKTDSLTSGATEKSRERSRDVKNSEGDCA
Chain of 3',5'-cyclic-AMP phosphodiesterase 4D (Q08499 whole entry): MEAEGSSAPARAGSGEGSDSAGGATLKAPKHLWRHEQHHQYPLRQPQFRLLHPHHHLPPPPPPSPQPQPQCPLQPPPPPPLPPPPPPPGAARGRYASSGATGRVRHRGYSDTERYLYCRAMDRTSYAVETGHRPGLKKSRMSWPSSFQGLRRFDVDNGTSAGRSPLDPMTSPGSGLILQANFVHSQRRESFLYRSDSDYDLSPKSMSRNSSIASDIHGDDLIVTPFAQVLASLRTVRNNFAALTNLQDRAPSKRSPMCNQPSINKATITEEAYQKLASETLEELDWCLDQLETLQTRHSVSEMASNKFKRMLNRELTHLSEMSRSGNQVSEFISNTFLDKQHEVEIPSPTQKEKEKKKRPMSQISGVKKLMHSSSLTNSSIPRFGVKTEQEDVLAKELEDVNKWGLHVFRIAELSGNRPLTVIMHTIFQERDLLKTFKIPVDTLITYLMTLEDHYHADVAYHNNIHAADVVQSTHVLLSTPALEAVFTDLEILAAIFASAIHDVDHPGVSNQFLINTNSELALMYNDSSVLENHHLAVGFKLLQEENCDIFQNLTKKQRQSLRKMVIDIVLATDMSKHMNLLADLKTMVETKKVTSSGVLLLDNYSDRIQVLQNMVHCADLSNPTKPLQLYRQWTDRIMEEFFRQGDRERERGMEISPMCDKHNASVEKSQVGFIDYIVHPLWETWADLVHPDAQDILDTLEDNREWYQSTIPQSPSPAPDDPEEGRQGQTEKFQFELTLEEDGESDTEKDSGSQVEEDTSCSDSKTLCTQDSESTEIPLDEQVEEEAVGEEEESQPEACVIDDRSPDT
Chain of cGMP-inhibited 3',5'-cyclic phosphodiesterase 3A (Q14432 whole entry): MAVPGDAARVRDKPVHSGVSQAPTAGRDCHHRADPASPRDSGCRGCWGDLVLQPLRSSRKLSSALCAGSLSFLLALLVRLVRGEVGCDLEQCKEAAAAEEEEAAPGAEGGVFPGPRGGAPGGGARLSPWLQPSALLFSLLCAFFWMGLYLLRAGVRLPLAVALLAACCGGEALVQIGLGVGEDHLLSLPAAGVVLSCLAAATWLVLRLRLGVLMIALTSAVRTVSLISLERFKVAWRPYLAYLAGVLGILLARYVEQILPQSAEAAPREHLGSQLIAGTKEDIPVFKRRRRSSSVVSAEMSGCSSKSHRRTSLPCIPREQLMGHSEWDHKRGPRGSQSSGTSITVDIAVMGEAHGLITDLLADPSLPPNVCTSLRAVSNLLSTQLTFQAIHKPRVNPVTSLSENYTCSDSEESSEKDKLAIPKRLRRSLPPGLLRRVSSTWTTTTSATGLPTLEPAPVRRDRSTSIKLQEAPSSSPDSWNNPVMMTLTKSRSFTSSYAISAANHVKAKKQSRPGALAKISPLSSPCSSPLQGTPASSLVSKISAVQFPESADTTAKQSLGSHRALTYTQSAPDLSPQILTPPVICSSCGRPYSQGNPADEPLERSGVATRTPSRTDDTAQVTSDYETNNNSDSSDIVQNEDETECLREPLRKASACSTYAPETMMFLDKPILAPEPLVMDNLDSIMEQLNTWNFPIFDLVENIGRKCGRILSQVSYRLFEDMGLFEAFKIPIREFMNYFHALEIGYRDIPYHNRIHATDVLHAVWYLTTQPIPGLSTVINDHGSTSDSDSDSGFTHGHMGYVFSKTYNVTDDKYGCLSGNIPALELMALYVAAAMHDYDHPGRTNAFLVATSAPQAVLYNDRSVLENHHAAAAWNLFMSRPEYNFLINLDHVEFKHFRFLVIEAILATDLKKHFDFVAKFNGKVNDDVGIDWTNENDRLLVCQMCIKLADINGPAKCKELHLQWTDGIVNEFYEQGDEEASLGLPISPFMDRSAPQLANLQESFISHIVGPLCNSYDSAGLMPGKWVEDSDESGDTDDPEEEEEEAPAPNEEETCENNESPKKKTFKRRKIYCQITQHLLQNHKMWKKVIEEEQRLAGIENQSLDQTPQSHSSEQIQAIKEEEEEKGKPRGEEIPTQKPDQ
Chain of 3',5'-cyclic-AMP phosphodiesterase 4C (Q08493 whole entry): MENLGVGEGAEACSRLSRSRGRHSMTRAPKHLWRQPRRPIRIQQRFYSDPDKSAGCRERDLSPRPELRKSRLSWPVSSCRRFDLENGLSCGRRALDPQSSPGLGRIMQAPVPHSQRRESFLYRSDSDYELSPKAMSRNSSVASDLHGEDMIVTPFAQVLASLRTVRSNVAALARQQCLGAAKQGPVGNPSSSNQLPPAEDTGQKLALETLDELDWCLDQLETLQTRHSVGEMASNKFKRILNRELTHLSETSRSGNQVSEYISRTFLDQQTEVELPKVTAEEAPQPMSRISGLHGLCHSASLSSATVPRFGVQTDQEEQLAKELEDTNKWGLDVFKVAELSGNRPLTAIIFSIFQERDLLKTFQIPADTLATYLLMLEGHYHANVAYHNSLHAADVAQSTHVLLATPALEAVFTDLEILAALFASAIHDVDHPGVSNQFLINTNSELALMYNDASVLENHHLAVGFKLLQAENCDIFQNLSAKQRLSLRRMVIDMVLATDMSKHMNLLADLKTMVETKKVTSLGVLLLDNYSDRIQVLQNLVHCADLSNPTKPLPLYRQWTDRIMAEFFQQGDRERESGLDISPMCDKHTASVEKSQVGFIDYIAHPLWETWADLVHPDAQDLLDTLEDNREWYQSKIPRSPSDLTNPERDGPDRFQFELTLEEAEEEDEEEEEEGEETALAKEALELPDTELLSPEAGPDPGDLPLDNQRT
Chain of Dual specificity calcium/calmodulin-dependent 3',5'-cyclic nucleotide phosphodiesterase 1A (P54750 whole entry): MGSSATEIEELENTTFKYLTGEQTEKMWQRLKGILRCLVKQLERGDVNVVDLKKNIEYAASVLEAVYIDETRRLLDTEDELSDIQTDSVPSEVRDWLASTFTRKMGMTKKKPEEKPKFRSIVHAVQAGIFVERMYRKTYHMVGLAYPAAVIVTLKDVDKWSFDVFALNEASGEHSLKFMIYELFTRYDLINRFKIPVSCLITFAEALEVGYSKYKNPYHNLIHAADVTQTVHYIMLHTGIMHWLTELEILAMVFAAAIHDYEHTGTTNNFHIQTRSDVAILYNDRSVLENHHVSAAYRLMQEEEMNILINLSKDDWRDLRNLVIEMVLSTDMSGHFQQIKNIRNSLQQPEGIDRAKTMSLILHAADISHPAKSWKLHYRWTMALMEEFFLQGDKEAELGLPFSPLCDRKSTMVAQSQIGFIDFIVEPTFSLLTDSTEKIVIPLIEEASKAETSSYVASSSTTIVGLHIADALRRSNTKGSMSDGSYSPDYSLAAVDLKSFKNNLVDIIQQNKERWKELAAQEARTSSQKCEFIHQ
Chain of 3',5'-cyclic-AMP phosphodiesterase 7B (Q9NP56 whole entry): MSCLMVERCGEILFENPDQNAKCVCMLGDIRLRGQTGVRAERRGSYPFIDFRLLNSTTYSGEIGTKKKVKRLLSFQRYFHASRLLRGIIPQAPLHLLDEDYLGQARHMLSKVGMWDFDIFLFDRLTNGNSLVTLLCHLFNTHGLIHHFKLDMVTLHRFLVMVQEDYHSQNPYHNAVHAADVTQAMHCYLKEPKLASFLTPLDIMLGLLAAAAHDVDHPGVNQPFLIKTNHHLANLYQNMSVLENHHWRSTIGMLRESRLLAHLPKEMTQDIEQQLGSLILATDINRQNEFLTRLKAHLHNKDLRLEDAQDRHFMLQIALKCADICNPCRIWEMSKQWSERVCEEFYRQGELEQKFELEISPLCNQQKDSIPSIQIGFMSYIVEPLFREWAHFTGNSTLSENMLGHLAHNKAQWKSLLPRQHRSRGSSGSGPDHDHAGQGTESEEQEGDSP

CC(C)c1nn(C)c2c(=O)[nH]c(Cc3ccccc3OCCN3CCOCC3)nc12
IC50 [1]: 0.53 µM
IC50 [2]: 0.97 µM
IC50 [3]: 7.81 µM
IC50 [4]: 0.79 µM

CC(C)c1n[nH]c2c(=O)[nH]c(C[C@@H]3CCCC[C@H]3OCCN3CCOCC3)nc12
IC50 [1]: 0.087 µM
IC50 [2]: 2.05 µM
IC50 [3]: > 10 µM
IC50 [4]: > 10 µM

CC(C)c1n[nH]c2c(=O)[nH]c(Cc3cccc(Cl)c3)nc12
IC50 [2]: 0.004 µM
IC50 [3]: 0.038 µM
IC50 [4]: 0.054 µM

CC(C)c1n[nH]c2c(=O)[nH]c(Cc3ccccc3OC(F)(F)F)nc12
IC50 [1]: 0.056 µM
IC50 [2]: 0.52 µM
IC50 [3]: 2.65 µM
Papp [5]: 10.8 ×10⁻⁶ cm/s
IC50 [4]: 2.5 µM

CC(C)c1n[nH]c2c(=O)[nH]c(C[C@@H]3CCCC[C@H]3Nc3ncccn3)nc12
IC50 [1]: 0.035 µM
IC50 [6]: > 10 µM
IC50 [7]: > 10 µM
IC50 [8]: 1.5 µM
IC50 [9]: > 10 µM
IC50 [10]: > 10 µM
IC50 [11]: > 10 µM
IC50 [2]: 4.4 µM
IC50 [12]: > 10 µM
IC50 [13]: > 10 µM
IC50 [14]: > 10 µM
IC50 [15]: > 10 µM
IC50 [3]: 9.8 µM
IC50 [4]: 7.7 µM
IC50 [16]: > 10 µM
IC50 [17]: > 10 µM
IC50 [18]: > 10 µM
IC50 [19]: 8.4 µM
IC50 [20]: > 10 µM

CC(C)c1n[nH]c2c(=O)[nH]c(Cc3ccccc3OCc3ccccc3)nc12
IC50 [1]: 0.082 µM
IC50 [2]: 1.34 µM
IC50 [3]: 2.63 µM
IC50 [4]: 1.43 µM

CC(C)c1n[nH]c2c(=O)[nH]c(Cc3ccccc3OCCN3CCOCC3)nc12
Cp(f) (Mus musculus [21]; mouse, in vivo, po, 250 mg/kg, 3 h): 243 nM
Activity (Mus musculus [22]): -32%
Activity (Mus musculus [23]): -59%
IC50 [1]: 0.041 µM
IC50 [6]: 8.2 µM
IC50 [7]: > 10 µM
IC50 [8]: 5.2 µM
IC50 [9]: > 10 µM
IC50 [10]: > 10 µM
Activity (Mus musculus [24]): -55%
IC50 [11]: > 10 µM
IC50 [2]: 1.13 µM
IC50 [12]: > 10 µM
IC50 [13]: > 10 µM
Activity (Mus musculus [25]): -40%
IC50 [14]: > 10 µM
Activity (Mus musculus [26]): -4.3%
Cp(f) (Mus musculus [27]; mouse, in vivo, po, 500 mg/kg, 3 h): 361 nM
IC50 [15]: > 10 µM
Activity (Mus musculus [28]): -35%
IC50 [3]: 4.95 µM
Activity (Mus musculus [29]): -35%
IC50 [4]: 3.9 µM
IC50 [16]: > 10 µM
IC50 [17]: > 10 µM
IC50 [18]: > 10 µM
Activity (Mus musculus [30]): -11%
Cp(f) (Mus musculus [31]; mouse, in vivo, po, 100 mg/kg, 3 h): 140 nM
IC50 [19]: > 10 µM
Activity (Mus musculus [32]): -6.4%
IC50 [20]: > 10 µM

CC(C)c1n[nH]c2c(=O)[nH]c(C[C@@H]3CCCC[C@H]3NC(=O)CN3CCCC3)nc12
IC50 [1]: 0.036 µM
IC50 [2]: > 10 µM
IC50 [3]: > 10 µM
IC50 [4]: > 10 µM

CC(C)c1n[nH]c2c(=O)[nH]c(C[C@@H]3CCCC[C@H]3Nc3ncc(C(=O)O)c(C(F)(F)F)n3)nc12
IC50 (Mus musculus [21]; Mus musculus, Plasma): > 1 µM
IC50 [1]: 0.007 µM
IC50 [6]: > 1 µM
IC50 [7]: > 1 µM
IC50 [8]: 0.37 µM
IC50 [9]: > 1 µM
IC50 [10]: > 1 µM
IC50 [11]: > 1 µM
IC50 [2]: > 10 µM
IC50 [12]: > 1 µM
IC50 [13]: > 1 µM
bioavailability [33]: 100%
IC50 [14]: > 1 µM
IC50 (Mus musculus [27]; Mus musculus, Plasma): > 1 µM
IC50 [15]: > 1 µM
IC50 [3]: > 10 µM
clearance (in vivo): 19.8 mL/min/kg
IC50 [4]: > 10 µM
IC50 [16]: > 1 µM
IC50 [17]: > 1 µM
IC50 [18]: > 1 µM
IC50 (Mus musculus [31]; Mus musculus, Plasma): > 1 µM
IC50 [19]: > 1 µM
IC50 [20]: > 1 µM
Vd [34]: 0.12 L/kg

CC(C)c1[nH]nc2c(=O)[nH]c(C[C@@H]3CCCC[C@H]3NC(=O)NCCCN3CCOCC3)nc12
IC50 [1]: 0.046 µM
IC50 [2]: 4.2 µM
IC50 [3]: > 10 µM
Papp [5]: 0.7 ×10⁻⁶ cm/s
IC50 [4]: > 10 µM

CC(C)c1[nH]nc2c(=O)[nH]c(C[C@@H]3CCCC[C@H]3NC(=O)CC3CCOCC3)nc12
IC50 [1]: 0.019 µM
IC50 [2]: 3.1 µM
IC50 [3]: > 10 µM
IC50 [4]: > 10 µM

Cc1ccc(N[C@@H]2CCCC[C@H]2Cc2nc3c(C(C)C)[nH]nc3c(=O)[nH]2)nn1
IC50 [1]: 0.023 µM
IC50 [2]: 7.6 µM
IC50 [3]: > 10 µM
IC50 [4]: > 10 µM
